Laboratory results: patent US4505908A, “7-Bromo-5-(2-halophenyl)-1H-2,3-dihydro-1,4-benzodiazepine pharmaceuticals” (priority 1981, dated 1985)

experiment: Acute Toxicity (7-day, single application per os); details: in vivo, po, single application p.o., NMRI mouse on an empty stomach
Method: The acute 7-day toxicity is determined after a single application per os on the white NMRI mouse, on an empty stomach, and the LD50 values are calculated by means of electronic data processing through a probit analysis.

Row | Compound | LD50 at 168 h [mg/kg]
1 | COCC1CN=C(c2ccccc2Cl)c2cc(Br)ccc2N1C (stereo not drawn) | > 1470
2 | CN1c2ccc(Br)cc2C(c2ccccc2Cl)=NCC1CO (stereo not drawn) | > 1470
3 | COCC1CN=C(c2ccccc2Cl)c2cc(Br)ccc2N1 (stereo not drawn) [Ex 2, 7-Bromo-2-methoxymethyl-5-(2-chlorophenyl)-1H-2,3-dihydro-1,4-benzodiazepin] | 1330
4 | OCC1CN=C(c2ccccc2Cl)c2cc(Br)ccc2N1 (stereo not drawn) [Ex 4, 7-Bromo-2-hydroxymethyl-5-(2-chlorophenyl)-1H-2,3-dihydro-1,4-benzodiazepine] | > 1370

experiment: Rotating rod test (muscular coordination impairing activity); details: mouse, in vivo, po
Method: The ability of muscular coordination is determined in the mouse by the rotating rod test according to Blum (1973).
For this test, only male NMRI mice are used, which can support themselves for five minutes on a rotating rod with a diameter of 4 cm at a rotational speed of 12 rotations per minute.
The test substances are administered orally to the animals one hour before the commencement of the test in the form of a 2% suspension in tylose solution. The animals are each placed twice for a period of 60 seconds onto the rotating rod. Animals which cannot support themselves on the rotating rod for a total of 110 seconds are regarded as having impaired muscular coordination. The dose which brings about an impairment in 50% of the animals is regarded as the ED50.
(§1) In columns 5 and 6 of the Table, the quotients which result from dividing the doses impairing muscular coordination or muscle tone by the anxiolytically effective doses are indicated.

Row | Compound | selectivity ratio
5 | COCC1CN=C(c2ccccc2Cl)c2cc(Br)ccc2N1C (stereo not drawn) | 1.11
6 | CN1c2ccc(Br)cc2C(c2ccccc2Cl)=NCC1CO (stereo not drawn) | 1.3
7 | COCC1CN=C(c2ccccc2Cl)c2cc(Br)ccc2N1 (stereo not drawn) [Ex 2, 7-Bromo-2-methoxymethyl-5-(2-chlorophenyl)-1H-2,3-dihydro-1,4-benzodiazepin] | 5.38
8 | OCC1CN=C(c2ccccc2Cl)c2cc(Br)ccc2N1 (stereo not drawn) [Ex 4, 7-Bromo-2-hydroxymethyl-5-(2-chlorophenyl)-1H-2,3-dihydro-1,4-benzodiazepine] | 8.6

experiment: Traction test (muscle relaxant activity / disturbance of muscle tone); details: mouse, in vivo, po
Method: In this test the influence of the test substances on the muscle tone is evaluated. The test substance is administered orally to mice. After 120 minutes the mice are suspended by their front paws on a thin, horizontally taut wire. The dose at which exactly half the animals fail to also grasp the wire with their hind paws within 5 seconds is regarded as the ED50.
as §1

Row | Compound | selectivity ratio
9 | COCC1CN=C(c2ccccc2Cl)c2cc(Br)ccc2N1C (stereo not drawn) | 7.38
10 | CN1c2ccc(Br)cc2C(c2ccccc2Cl)=NCC1CO (stereo not drawn) | 38.8
11 | COCC1CN=C(c2ccccc2Cl)c2cc(Br)ccc2N1 (stereo not drawn) [Ex 2, 7-Bromo-2-methoxymethyl-5-(2-chlorophenyl)-1H-2,3-dihydro-1,4-benzodiazepin] | 54.2
12 | OCC1CN=C(c2ccccc2Cl)c2cc(Br)ccc2N1 (stereo not drawn) [Ex 4, 7-Bromo-2-hydroxymethyl-5-(2-chlorophenyl)-1H-2,3-dihydro-1,4-benzodiazepine] | 164
